For one compound, Ki results are on record in patent US20100093714A1, “AMIDES OF THIENO[2,3-d]PYRIMIDINE AND THEIR USE AS ADENOSINE A2a RECEPTOR ANTAGONISTS” (priority 2008, published 2010).

Assay [1] deals with T1, human adenosine A2a receptor (Homo sapiens, UniProt P29274).
T1 construct: expressed in transfected cells; host or cells: CHO-K1
The assay is described as follows: Adenosine A2a Receptor Functional Assay (A2AGAL2). It is filed as cell-based. The following applies: CHO-K1 cells, cAMP inducible beta-galactosidase reporter, 15 nM NECA agonist challenge. The protocol: (§1) To initiate the functional assay, cryopreserved CHO-K1 cells overexpressing the human adenosine A2a receptor and containing a cAMP inducible beta-galactosidase reporter gene were thawed, centrifuged, DMSO containing media removed, and then seeded with fresh culture media into clear 384-well tissue culture treated plates (BD #353961) at a concentration of 10K cells/well. Prior to assay, these plates were cultured for two days at 37° C., 5% CO2, 90% Rh. On the day of the functional assay, culture media was removed and replaced with 45 uL assay medium (Hams/F-12 Modified (Mediatech #10-080CV) supplemented w/0.1% BSA). Test compounds were diluted and 11 point curves created at a 1000× concentration in 100% DMSO. Immediately after addition of assay media to the cell plates, 50 nL of the appropriate test compound antagonist or agonist control curves were added to cell plates using a Cartesian Hummingbird. Compound curves were allowed to incubate at room temperature on cell plates for approximately 15 minutes before addition of a 15 nM NECA (Sigma E2387) agonist challenge (5 uL volume). A control curve of NECA, a DMSO/Media control, and a single dose of Forskolin (Sigma F3917) were also included on each plate. After additions, cell plates were allowed to incubate at 37° C., 5% CO2, 90% Rh for 5.5-6 hours. After incubation, media was removed, and cell plates were washed 1×50 uL with DPBS w/o Ca & Mg (Mediatech 21-031-CV). Into dry wells, 20 uL of 1× Reporter Lysis Buffer (Promega E3971 (diluted in dH2O from 5× stock)) was added to each well and plates frozen at −20° C. overnight. For β-galactosidase enzyme calorimetric assay, plates were thawed out at room temperature and 20 μL 2× assay buffer (Promega) was added to each well. Color was allowed to develop at 37° C., 5% CO2, 90% Rh for 1-1.5 h or until reasonable signal appeared. The calorimetric reaction was stopped with the addition of 60 μL/well 1M sodium carbonate. Plates were counted at 405 nm on a SpectraMax Microplate Reader (Molecular Devices). Data was analyzed in Microsoft Excel and IC/EC50 curves were fit using a standardized macro.

In assay [2] the target is T2, human A2a adenosine receptor (Homo sapiens, UniProt P29274).
T2 construct: purchased PerkinElmer RB-HA2a; host or cells: HEK293 plasma membrane
T2 sequence (P29274 whole entry): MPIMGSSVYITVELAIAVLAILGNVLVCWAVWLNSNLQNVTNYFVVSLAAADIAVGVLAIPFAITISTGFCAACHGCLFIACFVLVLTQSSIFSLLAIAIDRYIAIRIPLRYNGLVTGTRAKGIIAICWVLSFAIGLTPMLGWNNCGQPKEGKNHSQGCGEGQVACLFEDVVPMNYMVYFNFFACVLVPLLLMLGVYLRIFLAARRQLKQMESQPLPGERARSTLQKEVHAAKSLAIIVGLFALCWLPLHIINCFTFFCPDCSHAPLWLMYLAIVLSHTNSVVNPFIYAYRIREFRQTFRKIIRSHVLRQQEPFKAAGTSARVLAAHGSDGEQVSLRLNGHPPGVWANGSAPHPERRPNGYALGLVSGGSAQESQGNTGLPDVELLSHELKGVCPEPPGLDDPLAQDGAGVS
The experiment in a line: Ligand Binding Assay for Adenosine A2a Receptor (A2A-B). The following applies: HEK293 cell plasma membrane, radioligand [3H]CGS21680. The protocol:
Ligand binding assay of adenosine A2a receptor was performed using plasma membrane of HEK293 cells containing human A2a adenosine receptor (PerkinElmer, RB-HA2a) and radioligand [^3H]CGS21680 (PerkinElmer, NET1021). Assay was set up in 96-well polypropylene plate in total volume of 200 μL by sequentially adding 20 μL 1:20 diluted membrane, 130 μL assay buffer (50 mM Tris·HCl, pH7.4 10 mM MgCl2, 1 mM EDTA) containing [^3H] CGS21680, 50 μL diluted compound (4×) or vehicle control in assay buffer. Nonspecific binding was determined by […] NECA. Reaction was carried out at room temperature for 2 hours before filtering through 96-well GF/C filter plate pre-soaked in 50 mM Tris·HCl, pH7.4 containing 0.3% polyethylenimine. Plates were then washed 5 times with cold 50 mM Tris·HCl, pH7.4, dried and sealed at the bottom. Microscintillation fluid 30 μL was added to each well and the top sealed. Plates were counted on Packard Topcount for [^3H]. Data was analyzed in Microsoft Excel and GraphPad Prism programs. (Varani, K.; Gessi, S.; Dalpiaz, A.; Borea, P. A. British Journal of Pharmacology, 1996, 117, 1693)

Assay [3] has as its target T3, human adenosine A1 receptor (Homo sapiens, UniProt P30542).
T3 construct: expressed in transfected cells; host or cells: CHO-K1
T3 sequence (P30542 1-326): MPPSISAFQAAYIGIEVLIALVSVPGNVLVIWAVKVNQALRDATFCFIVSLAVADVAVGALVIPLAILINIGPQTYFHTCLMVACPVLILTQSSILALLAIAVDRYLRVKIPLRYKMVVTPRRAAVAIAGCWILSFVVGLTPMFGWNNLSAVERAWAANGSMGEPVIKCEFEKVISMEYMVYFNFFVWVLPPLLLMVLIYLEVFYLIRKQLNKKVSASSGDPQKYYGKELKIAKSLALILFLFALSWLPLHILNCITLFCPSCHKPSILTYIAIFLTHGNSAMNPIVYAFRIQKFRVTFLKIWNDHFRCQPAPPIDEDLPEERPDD
The experiment in a line: Adenosine A1 Receptor Functional Assay (A1GAL2). The class given is cell-based. The note with it: CHO-K1 cells, cAMP inducible beta-galactosidase reporter, 4nM r-PIA/1 uM Forskolin agonist challenge. The procedure: as §1, with “A1” for “A2a”, “4nM r-PIA” for “15 nM NECA”, “P4532)/1 uM Forskolin (Sigma F3917)” for “E2387)”, “r-PIA in 1 uM Forskolin,” for “NECA,”, “Forskolin” for “Forskolin (Sigma F3917)”

The Ki is a measure of affinity in units of concentration, obtained from inhibition or displacement. Read a high Ki as weaker binding.

T1 sequence (P29274 whole entry): as the sequence (P29274 whole entry) above

Consider `N#Cc1cccc(-c2nc(N)c3cc(C(=O)N4CCOCC4)sc3n2)c1` [Example 2, 3-[4-Amino-6-(morpholine-4-carbonyl)-thieno[2,3-d]pyrimidin-2-yl]-benzonitrile], for which the inhibition constant (Ki) in assay [1] came to 37.9 nM; in assay [2] it was 22 nM; in assay [3] it was 900 nM.
